# Test: solubility of the fluorinated fluorescent material at varied concentrations (FIG. 8, FIG. 11)
# Type: physicochemical
# Conditions: concentrations shown 0.25 wt %, 0.5 wt %, and 1 wt %
# Description: More specifically, when using a compound represented by Chemical Formula 1, for example, a compound represented by Chemical Formula 1-1 for the fluorinated fluorescent material, the fluorinated fluorescent material is included, for example, in an amount from 0.1 wt % to less than 0.5 wt %, or even, for example, in an amount from 0.1 wt % to 0.3 wt %. This can be confirmed from FIG. 8 to FIG. 10. […] Referring to the drawings, it can be seen that solubility issues occur in concentrations of 0.5 wt % or higher. FIG. 9 and FIG. 10 show the fluorescence of a lubricant composition containing 0.25 wt % of a compound represented by Chemical Formula 1-1. […] From the drawings, it can be seen that the presence of the lubricant can be easily detected after application of the lubricant composition.
# Furthermore, when using a compound represented by Chemical Formula 2, for example, a compound represented by Chemical Formula 2-1 for the fluorinated fluorescent material, the fluorinated fluorescent material is included, for example, in an amount from 0.01 wt % to less than 1.0 wt %, or even included, for example, in an amount from 0.03 wt % to 0.15 wt %. This can be confirmed from FIG. 11. […] Referring to the drawing, it can be seen that solubility issues occur in concentrations of 1.0 wt % or higher.
structure (smiles),measurement,value
CCN(CC)c1ccc2c(C)cc(=O)oc2c1 [Chemical Formula 1-1],concentrations in which solubility issues occur,≥ 0.5 wt %
